Test results as given in patent US20240090498A1, “ANTIMICROBIAL COMPOSITIONS” (TAKASAGO INTERNATIONAL CORPORATION, priority 2010, published 2024).

Assays:
Format in all cases: cell-based
[1] = system: Pseudomonas aeruginosa ATCC 15422; assay: Vapor phase activity against bacteria (Example 2, growth grading versus control); note: key: −: No Activity (growth); +: Slight Activity (some growth, but much less than control); ++: Medium Activity (pinprick growth); +++: High Activity (no growth); settings: P.a. 15442; 7.1 or 9.3 mg/L as defined per composition; sealed 7 L box
Experimental: (§1) Seeded brain heart infusion (BHI) agar plates of Escherichia coli ATCC 10536, Salmonella enterica ATCC13311, Pseudomonas aeruginosa ATCC 15422, Staphylococcus aureus ATCC 6538, Enterococcus faecalis ATCC 29212, and Enterococcus hirae ATCC 10541 were placed in sealed 7 L acrylic boxes and exposed to vapors of the compositions shown below. A control was established in which the agar plates was not treated with vapors. • Composition A: 9.3 mg/L of trans-2-hexenal • Composition B: 9.3 mg/L of trans-2-heptenal • Composition C: 9.3 mg/L of 2, 4-heptadienal • Composition D: 7.1 mg/L of trans-2-hexenal • Composition E: 7.1 mg/L of 2,4-heptadienal • Composition F: 7.1 mg/L of 2,4-heptadienal+citronellol (1:1) • Composition G: 9.3 mg/L of citronellal+citral DMA (1:1) • Composition H: 9.3 mg/L of benzaldehyde+citral DMA (1:1) • Composition I: 9.3 mg/L of furfural+citronellol (1:1) • Composition J: 7.1 mg/L of citral+citronellal (1:1) • Composition K: 7.1 mg/L of trans-2-hexenal+citronellol (1:1)

[2] = system: Enterococcus hirae ATCC 10541; assay: as above; settings: E.h 10541; 7.1 or 9.3 mg/L as defined per composition; sealed 7 L box
Experimental: as §1

[3] = system: Escherichia coli ATCC 10536; assay: as above; design: key to the marks not given beside the values; settings: E.c. 10536; 7.1 or 9.3 mg/L as defined per composition; sealed 7 L box
Experimental: as §1

[4] = system: Enterococcus faecalis ATCC 29212; assay: as above; design: key to the marks not given beside the values; settings: E.f. 29212; 7.1 or 9.3 mg/L as defined per composition; sealed 7 L box
Experimental: as §1

[5] = system: Salmonella enterica ATCC13311; assay: as above; design: key to the marks not given beside the values; settings: S.e. 13311; 7.1 or 9.3 mg/L as defined per composition; sealed 7 L box
Experimental: as §1

[6] = system: Staphylococcus aureus ATCC 6538; assay: as above; design: key to the marks not given beside the values; settings: S.a. 6538; 7.1 or 9.3 mg/L as defined per composition; sealed 7 L box
Experimental: as §1

[7] = system: E.h. 10541; assay: MIC in solution; settings: Enterococcus hirae
Experimental: (§2) MIC values were also determined for trans-2 octenal, octanal formulations, and MEO in solution and in the vapor phase.

[8] = system: E.c. 10536; assay: MIC in solution; settings: Escherichia coli
Experimental: as §2

[9] = system: S.a. 6538; assay: MIC in solution; settings: Staphylococcus aureus
Experimental: as §2

[10] = system: E.f. 29212; assay: MIC in solution; settings: Enterococcus faecalis
Experimental: as §2

[11] = system: P.a. 15442; assay: MIC in solution; settings: Pseudomonas aeruginosa
Experimental: as §2

[12] = system: S.e. 13311; assay: MIC in solution; settings: Salmonella enterica
Experimental: as §2

[13] = system: Pseudomonas aeruginosa ATCC 15422; assay: Vapor phase MIC / combined FIC on seeded BHI agar plates in sealed 7 L box; settings: ATCC15422, 72 h, P. aeruginosa, no growth after 3 days at room temperature, read-out: MIC alone (single material, vapor phase)
Source text: (§3) Seeded brain heart infusion (BHI) agar plates of Escherichia coli ATCC 10536, Salmonella enterica ATCC13311, Pseudomonas aeruginosa ATCC 15422, Staphylococcus aureus ATCC 6538, Enterococcus faecalis ATCC 29212, and Enterococcus hirae ATCC 10541 were placed in sealed 7 L acrylic boxes and exposed to vapors of trans-2-alkenals (C6 to C11 carbon chain length) and mustard essential oil (MEO) binary combinations.
(§4) The trans-2-alkenals and MEO were weighed neat into a glass jar which was positioned in the box between the seeded agar plates. The concentration of the single materials and binary combinations introduce in the 7 L box were expressed as weight per unit volume of the box (mg/L). Several concentrations ranging from 0.5 mg/L to 43 mg/L of the single materials and combinations were tested for each organism. The vapor phase minimum inhibition concentration (MIC) with “no growth” after 3 days of incubation at room temperature. Fractional Inhibition Concentrations (FIC) was determined to evaluate the antibacterial effect of trans-2-alkenals and MEO combinations in the vapor phase based on the following formula:
(§5) Combined FIC=(MIC of trans-2-alkenalcombination/MIC of trans-2-alkenalalone)+(MIC of MEOcombination/MIC of MEOalone)
(§6) Combined FIC values for trans-2-alkenals and MEO combinations are shown below in Table 1. Combinations with combined FIC equal or less than 0.5 are considered to have a strong synergistic effect.

[14] = system: Escherichia coli ATCC 10536; assay: as above; settings: ATCC10536, 72 h, E. coli, no growth after 3 days at room temperature, read-out: MIC alone (single material, vapor phase)
Source text: as §3, §4, §5, §6

[15] = system: Enterococcus faecalis ATCC 29212; assay: as above; settings: ATCC29212, 72 h, E. faecalis, no growth after 3 days at room temperature, read-out: MIC alone (single material, vapor phase)
Source text: as §3, §4, §5, §6

[16] = system: Salmonella enterica ATCC13311; assay: as above; settings: ATCC13311, 72 h, S. enterica, no growth after 3 days at room temperature, read-out: MIC alone (single material, vapor phase)
Source text: as §3, §4, §5, §6

[17] = system: Staphylococcus aureus ATCC 6538; assay: as above; settings: ATCC6538, 72 h, S. aureus, no growth after 3 days at room temperature, read-out: MIC alone (single material, vapor phase)
Source text: as §3, §4, §5, §6

[18] = system: Enterococcus hirae ATCC 10541; assay: as above; settings: ATCC10541, 72 h, E. hirae, no growth after 3 days at room temperature, read-out: MIC alone (single material, vapor phase)
Source text: as §3, §4, §5, §6
Throughout, for Vapor phase activity against bacteria: key: −: No Activity (growth); +: Slight Activity (some growth, but much less than control); ++: Medium Activity (pinprick growth); +++: High Activity (no growth).

With `CCC/C=C/C=O` [Composition A, trans-2-hexenal] the “Vapor Phase Activity Against Bacteria” value [1] was “+++”, the “Vapor Phase Activity Against Bacteria” value [2] was “+” and the “Vapor Phase Activity Against Bacteria” value [3] was “+++”. For the same compound, the “Vapor Phase Activity Against Bacteria” value [4] was “+++”, the “Vapor Phase Activity Against Bacteria” value [5] was “+++” and the “Vapor Phase Activity Against Bacteria” value [6] was “+++”.
In the case of `CCCC/C=C/C=O` [Composition B, trans-2-heptenal], the “Vapor Phase Activity Against Bacteria” value [1] was “+”, the “Vapor Phase Activity Against Bacteria” value [2] was “+++” and the “Vapor Phase Activity Against Bacteria” value [3] was “+++”. For the same compound, the “Vapor Phase Activity Against Bacteria” value [4] was “+++”, the “Vapor Phase Activity Against Bacteria” value [5] was “+++” and the “Vapor Phase Activity Against Bacteria” value [6] was “+++”.
With `CC/C=C/C=C/C=O` [Composition C, 2,4-heptadienal] the “Vapor Phase Activity Against Bacteria” value [1] was “+++”, the “Vapor Phase Activity Against Bacteria” value [2] was “+” and the “Vapor Phase Activity Against Bacteria” value [3] was “+++”. For the same compound, the “Vapor Phase Activity Against Bacteria” value [4] was “+++”, the “Vapor Phase Activity Against Bacteria” value [5] was “+++” and the “Vapor Phase Activity Against Bacteria” value [6] was “+++”.
In the case of `CC/C=C/C=C/C=O` [Composition E, 2,4-heptadienal], the “Vapor Phase Activity Against Bacteria” value [1] was “++”, the “Vapor Phase Activity Against Bacteria” value [2] was “+” and the “Vapor Phase Activity Against Bacteria” value [3] was “+++”. The “Vapor Phase Activity Against Bacteria” value [4] was “++”, the “Vapor Phase Activity Against Bacteria” value [5] was “+++” and the “Vapor Phase Activity Against Bacteria” value [6] was “+++”.
Compound `CCCCCCCC=O` [octanal] has an MIC [7] greater than 125 µg/mL, an MIC [8] greater than 125 µg/mL and an MIC [9] greater than 125 µg/mL. It also gave an MIC [10] greater than 125 µg/mL, an MIC [11] greater than 125 µg/mL and an MIC [12] greater than 125 µg/mL. The MIC [13] was 84.8 µg/mL, the MIC [14] was 21.1 µg/mL and the MIC [15] was 42.4 µg/mL. It also gave an MIC [16] of 42.4 µg/mL, an MIC [17] of 7.8 µg/mL and an MIC [18] of 42.4 µg/mL.
Work on `CCCCCCC/C=C/C=O` [trans-2-decenal] yielded an MIC [13] of 43 µg/mL, an MIC [15] of 6.4 µg/mL and an MIC [18] of 6.4 µg/mL.
Work on `CCCC/C=C/C=O` [trans-2-heptenal] yielded an MIC [13] of 25.6 µg/mL, an MIC [15] of 6.4 µg/mL and an MIC [18] of 12.8 µg/mL.
`CCC/C=C/C=O` [trans-2-hexenal] gave an MIC [13] of 12.8 µg/mL, an MIC [15] of 6.4 µg/mL and an MIC [18] of 12.8 µg/mL.
`CCCCCC/C=C/C=O` [trans-2-nonenal] was tested, and the MIC [13] was 43 µg/mL, the MIC [15] was 6.4 µg/mL and the MIC [18] was 6.4 µg/mL.
Compound `CCCCC/C=C/C=O` [trans-2-octenal] has an MIC [7] greater than 125 µg/mL, an MIC [8] greater than 125 µg/mL and an MIC [9] greater than 125 µg/mL. For the same compound, the MIC [10] was greater than 125 µg/mL, the MIC [11] was greater than 125 µg/mL and the MIC [12] was greater than 125 µg/mL. It also gave an MIC [13] of 43 µg/mL, an MIC [14] of 43 µg/mL and an MIC [15] of 43 µg/mL. The MIC [16] was 43 µg/mL, the MIC [17] was 3.6 µg/mL and the MIC [18] was 25.6 µg/mL.
`CCCCCCCC/C=C/C=O` [trans-2-undecenal] showed an MIC [13] of 43 µg/mL, an MIC [15] of 12.8 µg/mL and an MIC [18] of 12.8 µg/mL.
